Consider 6 compounds from patent US12076320B2, “Diarylpyrazole compound, composition comprising same, and use thereof” (Shenzhen TargetRx, Inc., priority 2018, dated 2024).

The nature of data set [1]: Metabolic stability evaluation in human liver microsomes. The data set is classed as in vitro ADME. The following applies: human liver microsomes 0.5 mg/mL, compound 1 μM; for microsomal CLint at 1 μM / half-life at 1 μM: pH 7.4; for microsomal CLint at 1 μM: read-out: HLM CL; for half-life at 1 μM: read-out: HLM T1/2. As for the experimental part: (§1) Microsome assay: human liver microsomes (HLM): 0.5 mg/mL, Xenotech; rat liver microsomes (RLM): 0.5 mg/mL, Xenotech; coenzyme (NADPH/NADH): 1 mM, Sigma Life Science; magnesium chloride: 5 mM, 100 mM phosphate buffer (pH 7.4).
(§2) Preparation of stock solutions: Powders of the example compounds and the control compound were accurately weighed and dissolved in DMSO to 5 mM respectively.
(§3) Preparation of phosphate buffer (100 mM, pH 7.4): A pre-prepared 0.5 M potassium dihydrogen phosphate solution (150 mL) was mixed with a pre-prepared 0.5 M dibasic potassium phosphate solution (700 mL). The pH of the mixture was adjusted to 7.4 with a 0.5 M dibasic potassium phosphate solution. The mixture was diluted 5-fold with ultrapure water before use, and magnesium chloride was added to obtain a phosphate buffer (100 mM) containing 100 mM potassium phosphate, 3.3 mM magnesium chloride, pH 7.4.
(§4) A NADPH regeneration system solution (containing 6.5 mM NADP, 16.5 mM G-6-P, 3 U/mL G-6-P D, 3.3 mM magnesium chloride) was prepared and placed on wet ice before use.
(§5) Preparation of stop solution: an acetonitrile solution containing 50 ng/mL propranolol hydrochloride and 200 ng/mL tolbutamide (internal standard). 25057.5 μL of phosphate buffer (pH 7.4) was added into a 50 mL centrifuge tube, to which 812.5 μL of human liver microsomes were then added and mixed well to obtain a liver microsome dilution with a protein concentration of 0.625 mg/mL. 25057.5 μL of phosphate buffer (pH 7.4) was added into a 50 mL centrifuge tube, to which 812.5 μL of SD rat liver microsomes were then added and mixed well to obtain a liver microsome dilution with a protein concentration of 0.625 mg/mL.
(§6) Incubation of the samples: The stock solutions of the respective compounds were respectively diluted to 0.25 mM with an aqueous solution containing 70% acetonitrile, and used as a working solution, ready for use. 398 μL of the dilutions of human liver microsomes or rat liver microsomes were added to 96-well incubation plates (N=2), respectively, and 2 μL of 0.25 mM working solution was added respectively and nixed.
(§7) Metabolic stability assay: 300 μL of pre-chilled stop solution was added to each well of 96-well deep well plates and placed on ice as stop plates. The 96-well incubation plates and NADPH regeneration system were placed in a 37° C. water bath, shaken at 100 rpm and pre-incubated for 5 min. 80 μL of incubation solution was taken out from each well of the incubation plates, added to the stop plates, mixed well, and replenished with 20 μL of NADPH regeneration system solution. The resulting mixture was used as a 0-min sample. 80 μL of NADPH regeneration system solution was added to each well of the incubation plates to start the reaction and start counting. […] At 10, 30, and 90 minutes of the reaction, respectively, 100 μL of the reaction solutions were taken out, added to the stop plates, and vortexed for 3 minutes to stop the reaction. The stop plates were centrifuged at 5000×g at 4° C. for 10 min. 100 μL of the supernatant was taken out, added to a 96-well plate pre-added with 100 μL of distilled water, mixed well, and analyzed by LC-MS/MS.
(§8) Data analysis: The peak areas of the corresponding compounds and internal standard were detected by LC-MS/MS system, and the ratio of the peak area of the compounds to the internal standard was calculated.

A short description of data set [2]: Metabolic stability evaluation in rat liver microsomes. The data set is classed as in vitro ADME, SD rat. The following applies: rat liver microsomes 0.5 mg/mL, compound 1 μM; for microsomal CLint at 1 μM / half-life at 1 μM: SD, pH 7.4; for microsomal CLint at 1 μM: read-out: RLM CL; for half-life at 1 μM: read-out: RLM T1/2. How it is done: as §1, §2, §3, §4, §5, §6, §7, §8

The subject of data set [3] is HT-29 colorectal cancer cell line with BRAF V600E mutation. Put plainly: Cytotoxicity assay (CTG, 72 hours). The data set is classed as cell-based. To be noted: Homo sapiens, HT-29 cells.
Experimental: The cell viability was detected by trypan blue exclusion method to ensure that the cell viability was greater than 90%. The cells were inoculated in a 96-well plate and cultured overnight under the condition of 37° C. and 5% CO2. The 10-fold drug solutions were prepared by a 3.16-fold serial dilution starting from a maximum concentration of 1 μM, resulting in 9 concentrations. 10 μL of the drug solutions were added to each well of the 96-well plate in triplicate, and the incubation was further continued for 72 hours. An equal volume of CTG solution was added to each well, and the cell plate w as shaked on an orbital shaker for 5 minutes to lyse the cells. The cell plate was placed at room temperature for 20 minutes to stabilize the luminescence signal, and the luminescence values were then read on a SpectraMax multi-label microplate reader (MD, 2104-0010A). The data were analyzed with GraphPad Prism 5.0 software, and fitted using the non-linear S-curve regression to obtain a dose-effect curve, from which IC50 values were calculated accordingly.
The conditions of data set [4]: at weakly acidic and neutral pH; cited from earlier work.

For orientation: IC50 means the concentration that inhibits the measured activity by half. Low values mean higher potency, high ones lower potency.

For `[2H]C([2H])([2H])C([2H])(n1cc(-c2ccnc(NC[C@H](C)NC(=O)OC)n2)c(-c2cc(Cl)cc(NS(C)(=O)=O)c2F)n1)C([2H])([2H])[2H]` (single isomer, unassigned) [L-1], in data set [1], the microsomal CLint at 1 μM amounted to 9.47 µL/min/mg and the half-life at 1 μM came to 2.44 h. Further, in data set [2], the microsomal CLint at 1 μM was found to be 11.8 µL/min/mg and the half-life at 1 μM was 1.95 h.

For the compound `[2H]C([2H])([2H])OC(=O)N[C@@H](C)CNc1nccc(-c2cn(C(C)C)nc2-c2cc(Cl)cc(NS(C)(=O)=O)c2F)n1` (single isomer, unassigned) [L-2], in data set [1], the microsomal CLint at 1 μM came to 9.07 µL/min/mg and the half-life at 1 μM was found to be 2.55 h. Also, in data set [2], the microsomal CLint at 1 μM worked out at 16.8 µL/min/mg and the half-life at 1 μM was found to be 1.38 h.

Turning to `[2H]C([2H])([2H])OC(=O)N[C@@H](C)CNc1nccc(-c2cn(C([2H])(C([2H])([2H])[2H])C([2H])([2H])[2H])nc2-c2cc(Cl)cc(NS(C)(=O)=O)c2F)n1` (single isomer, unassigned) [L-3], in data set [1], the microsomal CLint at 1 μM was determined as 4.87 µL/min/mg and the half-life at 1 μM stood at 4.75 h. Also, in data set [2], the microsomal CLint at 1 μM stood at 11.3 µL/min/mg and the half-life at 1 μM came out at 2.04 h.

Turning to `[2H]C([2H])([2H])[C@H](NC(=O)OC)C([2H])([2H])Nc1nccc(-c2cn(C(C)C)nc2-c2cc(Cl)cc(NS(C)(=O)=O)c2F)n1` (single isomer, unassigned) [L-4-S], in data set [1], the microsomal CLint at 1 μM worked out at 12.5 µL/min/mg and the half-life at 1 μM is 1.85 h. Further, in data set [2], the microsomal CLint at 1 μM amounted to 16.7 µL/min/mg and the half-life at 1 μM was found to be 1.38 h.

With `COC(=O)N[C@@H](C)CNc1nccc(-c2cn(C(C)C)nc2-c2cc(Cl)cc(NS(C)(=O)=O)c2F)n1` [Encorafenib, (S)-methyl (1-((4-(3-(5-chloro-2-fluoro-3-(methylsulfonamido)phenyl)-1-isopropyl-1H-pyrazol-4-yl)pyrimidin-2-yl)amino)propan-2-yl)carbamate, reference compound], the IC50 in data set [3] turned out to be 8.96 nM. Moreover, the microsomal CLint at 1 μM in data set [1] was 17.3 µL/min/mg; in data set [2], 17.4 µL/min/mg. Moreover, the half-life at 1 μM in data set [1] and in data set [2] was 1.33 h each time. In data set [4], the water-solubility entry was “poor”.

Consider `[2H]C([2H])([2H])[C@H](NC(=O)OC)C([2H])([2H])Nc1nccc(-c2cn(C([2H])(C([2H])([2H])[2H])C([2H])([2H])[2H])nc2-c2cc(Cl)cc(NS(C)(=O)=O)c2F)n1` [L-5-S, (S)-methyl (1-((4-(3-(5-chloro-2-fluoro-3-(methylsulfonamido)phenyl)-1-(propan-2-yl-d7)-3-1H-pyrazol-4-yl)pyrimidin-2-yl)amino)propan-2-yl-1,1,3,3,3-d5)carbamate], for which, in data set [1], the “HLM CL” value was found to be 5.69 µL/min/mg and the “HLM T1/2” value worked out at 4.0628 h. In data set [2], the “RLM CL” value amounted to 10.22 µL/min/mg and the “RLM T1/2” value turned out to be 2.2595 h.
